Consider one compound from article PMC6941654, “Glucosyltransferase CsUGT78A14 Regulates Flavonols Accumulation and Reactive Oxygen Species Scavenging in Response to Cold Stress in Camellia sinensis” (Frontiers in Plant Science, 2019).

This test deals with T1, CsUGT78A14-1 (Camellia sinensis, UniProt A0A109P632).
T1 construct: gene UGT78A14; Ala438 allele
Put plainly: UDP-Glo glycosyltransferase assay, steady-state kinetics. It counts as biochemical. The note with it: co-substrate UDP-glucose (Glc row), donor fixed at 100 μM; acceptor varied 1-500 μM; optimized pH and temperature. The source says:
UDP-Glo glycosyltransferase assay, steady-state kinetics on CsUGT78A14-1

T1 sequence (A0A109P632 entry or part of it): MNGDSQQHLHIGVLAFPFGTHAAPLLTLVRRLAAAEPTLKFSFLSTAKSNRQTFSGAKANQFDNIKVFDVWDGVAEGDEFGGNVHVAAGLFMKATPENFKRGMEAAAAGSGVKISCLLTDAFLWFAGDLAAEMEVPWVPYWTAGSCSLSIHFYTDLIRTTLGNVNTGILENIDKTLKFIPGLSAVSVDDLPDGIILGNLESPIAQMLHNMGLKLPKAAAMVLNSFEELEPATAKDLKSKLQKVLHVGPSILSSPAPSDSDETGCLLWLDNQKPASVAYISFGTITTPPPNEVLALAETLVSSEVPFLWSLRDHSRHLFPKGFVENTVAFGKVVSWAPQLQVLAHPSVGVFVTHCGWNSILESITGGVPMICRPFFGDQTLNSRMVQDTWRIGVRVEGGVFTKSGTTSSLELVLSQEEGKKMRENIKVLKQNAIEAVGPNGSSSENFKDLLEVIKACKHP

Regarding `O=c1c(O)c(-c2ccc(O)cc2)oc2cc(O)cc(O)c12` [kaempferol], the Km is 27.1 µM.
